Where two headings read alike, the source gives them in different places.
Tests used:
[1] = target: GSK-3α/β; assay: GSK-3α/β kinase assay (GS-1 peptide, 15 μM ATP); assay type: biochemical, porcine
[2] = target: T1, AhR (Mus musculus, UniProt P30561); settings: read-out: EC50 AhR (hepatoma cell line); Table 4; EGFP at 24 hours
T1 sequence (P30561 1-848): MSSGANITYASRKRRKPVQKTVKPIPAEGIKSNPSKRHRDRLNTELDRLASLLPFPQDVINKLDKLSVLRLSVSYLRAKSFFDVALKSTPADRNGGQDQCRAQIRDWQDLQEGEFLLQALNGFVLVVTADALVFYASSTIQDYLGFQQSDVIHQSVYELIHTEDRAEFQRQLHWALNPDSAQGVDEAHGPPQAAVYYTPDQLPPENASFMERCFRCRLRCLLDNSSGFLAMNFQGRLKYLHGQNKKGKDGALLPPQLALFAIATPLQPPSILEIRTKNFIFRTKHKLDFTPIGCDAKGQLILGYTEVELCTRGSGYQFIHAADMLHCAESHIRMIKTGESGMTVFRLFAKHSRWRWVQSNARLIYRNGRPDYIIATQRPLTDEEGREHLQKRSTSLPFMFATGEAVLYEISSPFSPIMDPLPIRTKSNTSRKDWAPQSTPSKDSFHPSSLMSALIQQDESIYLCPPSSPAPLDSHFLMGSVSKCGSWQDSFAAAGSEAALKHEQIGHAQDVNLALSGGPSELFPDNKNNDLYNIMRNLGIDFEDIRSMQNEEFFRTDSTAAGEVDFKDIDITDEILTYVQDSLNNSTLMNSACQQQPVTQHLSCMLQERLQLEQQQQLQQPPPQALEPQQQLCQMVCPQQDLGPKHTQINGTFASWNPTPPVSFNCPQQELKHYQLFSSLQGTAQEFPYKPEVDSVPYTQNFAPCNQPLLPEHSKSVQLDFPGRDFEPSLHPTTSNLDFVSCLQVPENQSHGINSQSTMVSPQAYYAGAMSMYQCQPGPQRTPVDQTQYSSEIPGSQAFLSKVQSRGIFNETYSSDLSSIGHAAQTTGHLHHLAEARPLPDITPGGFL

[3] = system: 5L (AhR +/+) hepatoma cells; assay: FACS cell cycle analysis, 5L cells; assay type: cell-based, mouse; settings: 10 μM indirubins or 100 nM TCDD, 24 hr
[4] = target: AhR (Homo sapiens, UniProt P35869)
Sequence of AhR (Homo sapiens, UniProt P35869) (P35869 11-848): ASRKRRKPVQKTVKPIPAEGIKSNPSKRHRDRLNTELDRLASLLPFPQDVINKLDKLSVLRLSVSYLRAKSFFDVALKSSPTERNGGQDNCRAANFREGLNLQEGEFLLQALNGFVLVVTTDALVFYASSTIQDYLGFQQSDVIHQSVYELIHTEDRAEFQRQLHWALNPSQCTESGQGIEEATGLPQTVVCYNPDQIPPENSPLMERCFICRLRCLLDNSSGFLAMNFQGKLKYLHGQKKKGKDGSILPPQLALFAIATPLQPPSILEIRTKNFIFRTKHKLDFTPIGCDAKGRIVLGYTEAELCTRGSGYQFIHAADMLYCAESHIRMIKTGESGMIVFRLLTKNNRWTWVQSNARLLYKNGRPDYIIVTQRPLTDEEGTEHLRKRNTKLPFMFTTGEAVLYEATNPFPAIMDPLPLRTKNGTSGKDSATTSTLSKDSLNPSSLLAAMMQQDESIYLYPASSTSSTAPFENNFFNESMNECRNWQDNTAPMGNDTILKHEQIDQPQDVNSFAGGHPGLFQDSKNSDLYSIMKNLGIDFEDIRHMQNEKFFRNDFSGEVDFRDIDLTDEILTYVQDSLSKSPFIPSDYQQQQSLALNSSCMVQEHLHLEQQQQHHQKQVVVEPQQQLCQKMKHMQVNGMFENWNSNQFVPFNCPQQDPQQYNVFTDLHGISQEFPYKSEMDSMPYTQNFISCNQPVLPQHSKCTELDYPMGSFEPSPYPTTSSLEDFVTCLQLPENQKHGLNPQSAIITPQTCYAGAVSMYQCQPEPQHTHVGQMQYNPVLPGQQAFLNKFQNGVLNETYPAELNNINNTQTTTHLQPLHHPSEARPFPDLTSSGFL
Sequence of AhR (Homo sapiens, UniProt P35869) (P27540 whole entry partner): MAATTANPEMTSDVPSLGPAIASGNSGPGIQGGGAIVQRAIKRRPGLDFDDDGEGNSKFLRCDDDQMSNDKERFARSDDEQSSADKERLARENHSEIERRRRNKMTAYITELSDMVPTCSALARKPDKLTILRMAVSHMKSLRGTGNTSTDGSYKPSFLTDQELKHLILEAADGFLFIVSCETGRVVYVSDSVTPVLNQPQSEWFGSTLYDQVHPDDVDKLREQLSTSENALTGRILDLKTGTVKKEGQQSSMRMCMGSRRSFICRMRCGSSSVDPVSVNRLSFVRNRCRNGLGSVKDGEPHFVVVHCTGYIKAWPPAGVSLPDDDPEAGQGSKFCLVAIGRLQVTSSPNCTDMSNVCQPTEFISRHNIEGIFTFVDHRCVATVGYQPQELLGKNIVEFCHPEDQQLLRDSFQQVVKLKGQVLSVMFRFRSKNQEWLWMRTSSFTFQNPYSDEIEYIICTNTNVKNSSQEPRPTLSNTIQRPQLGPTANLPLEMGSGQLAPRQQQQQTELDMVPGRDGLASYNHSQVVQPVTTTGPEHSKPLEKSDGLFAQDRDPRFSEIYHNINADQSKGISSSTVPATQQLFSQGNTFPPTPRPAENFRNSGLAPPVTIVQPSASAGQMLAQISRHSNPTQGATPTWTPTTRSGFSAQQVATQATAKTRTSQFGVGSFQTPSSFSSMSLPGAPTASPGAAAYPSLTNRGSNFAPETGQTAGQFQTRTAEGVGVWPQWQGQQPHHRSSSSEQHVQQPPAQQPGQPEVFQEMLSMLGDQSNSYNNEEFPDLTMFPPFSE

[5] = system: p27^KIP1 in 5L (AhR +/+) cells; assay: p27KIP1 expression by Western blotting, 5L cells; assay type: cell-based, mouse; settings: 10 μM indirubins or 0.1 μM TCDD, 24 hr
[6] = system: BP8 (AhR −/−) hepatoma cells; assay: Cell viability MTT assay, BP8 cells; assay type: cell-based, mouse; settings: range of concentrations, 24 and 48 hr
[7] = system: GSK-3α (Tyr276) / GSK-3β (Tyr216); assay: Tyrosine phosphorylation of GSK-3 in SH-SY5Y cells (Western blot); assay type: cell-based, human; settings: 1 μM, 12 hr
Excerpt: GSK-3α and GSK-3β activity is enhanced by the phosphorylation of a specific tyrosine residue (Tyr276 and Tyr216, respectively) (Hughes et al. (1993) EMBO J. 12: 803-808; Dajani et al. (2003) EMBO J. 22: 494-501). The tyrosine kinase responsible for this phosphorylation in mammals is unknown, but there is some evidence that it indirectly depends on GSK-3 activity (Bhat et al. (2000) Proc. Natl. Acad. Sci. U.S.A. 97: 11074-11079; Shaw et al. (1997) FEBS Lett. 416: 307-311). […] SH-SY5Y cells were exposed to IO, MeIO, BIO and MeBIO for 12 hr and the phosphorylation of Tyr276 (GSK-3α) and Tyr216 (GSK-3β) was estimated by Western blotting with phospho-specific antibodies. […] This was accompanied by an increased level in total GSK-3β, total β-catenin, and dephospho-&catenin.

[8] = system: 5L (AhR +/+) hepatoma cells; assay: Cell viability MTT assay, 5L cells; assay type: cell-based, mouse; settings: range of concentrations, 24 and 48 hr
[9] = target: CDK5/p25 (Homo sapiens, UniProt Q00535); assay: CDK5/p25 kinase assay (histone H1, 15 μM ATP); assay type: biochemical, mammalian; settings: read-out: IC50 CDK5/p25
Sequence of CDK5/p25 (Q00535 whole entry, species assumed): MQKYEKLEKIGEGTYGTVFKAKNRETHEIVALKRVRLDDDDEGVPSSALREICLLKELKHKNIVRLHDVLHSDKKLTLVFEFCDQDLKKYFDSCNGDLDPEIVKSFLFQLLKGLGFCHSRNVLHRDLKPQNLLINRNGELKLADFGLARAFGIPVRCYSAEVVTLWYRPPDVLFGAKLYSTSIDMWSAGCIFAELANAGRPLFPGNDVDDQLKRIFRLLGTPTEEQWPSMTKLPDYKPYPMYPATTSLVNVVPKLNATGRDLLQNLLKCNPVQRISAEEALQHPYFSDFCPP
Sequence of CDK5/p25 (Q15078 99-307 partner limits assumed, species assumed): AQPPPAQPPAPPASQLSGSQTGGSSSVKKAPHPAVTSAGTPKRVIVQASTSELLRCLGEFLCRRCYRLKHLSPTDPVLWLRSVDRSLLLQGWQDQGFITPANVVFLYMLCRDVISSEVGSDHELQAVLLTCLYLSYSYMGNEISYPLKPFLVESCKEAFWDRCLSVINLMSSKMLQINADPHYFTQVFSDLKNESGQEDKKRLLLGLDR

[10] = system: BP8 (AhR −/−) hepatoma cells; assay: Cell proliferation by direct counting, BP8 cells; assay type: cell-based, mouse; settings: 20 μM, 24 and 48 hr
Description: (§1) The protocol followed was similar to those previously described in Weiss C, Kolluri S K, Kiefer F and Göttlicher M. (1996). Exp. Cell Res., 226, 154-163, and Kolluri S K, Weiss C, Koff A and Gbttlicher M. (1999). Genes & Dev., 13, 1742-1753. The mouse 5L hepatoma cell line (AhR +/+) and BP8 (an AhR −/− subclone) were kindly provided by Dr. M. Gottlicher (Forschungszentrun Karlsruhe, Institute of Genetics, 76021 Karlsruhe, Germany). Cells were cultured in Dulbecco's modified Eagle medium (DMEM) (Biowhittaker) supplemented with 2 mM L-glutamine (Eurobio), 10% fetal calf serum (FCS), and gentamycin (Gibco BRL) at 37° C. in an atmosphere of 7% CO2. […] Control experiments were carried out using appropriate dilutions of DMSO.
(§2) The effects of IO and MeOO (20 μM) on the proliferation rate of 5L and BP8 cell lines was determined by counting directly the number of live cells after 24 and 48 hr of exposure to the indirubins (FIG. 17).

[11] = target: CDK1/cyclin B; assay: CDK1/cyclin B kinase assay (histone H1, 15 μM ATP); assay type: biochemical, starfish (Marthasterias glacialis)
[12] = system: 5L (AhR +/+) hepatoma cells; assay: Cell proliferation by direct counting, 5L cells; assay type: cell-based, mouse; settings: 20 μM, 24 and 48 hr
Description: as §1, §2

[13] = system: BP8 (AhR −/−) hepatoma cells; assay: FACS cell cycle analysis, BP8 cells; assay type: cell-based, mouse; settings: 10 μM indirubins or 100 nM TCDD, 24 hr
Description: Flow cytometry analysis (Coulter EPIX XL2, Beckman, Calif., USA) of cellular DNA content was performed on ethanol-fixed cell suspensions after ribonuclease A III treatment (Sigma) and propidium iodide (Sigma) staining, as previously described (French et al. (1985) Cytometry 6: 47-53). Percentages of cells in G0/G1, S and G2/M phases of cell cycle were then calculated on the basis of DNA distribution histograms provided by the software manufacturer.
Both 5L and BP8 cell lines were treated with 10 μM IO, MeIO, BIO, MeBIO or 100 nM TCDD for 24 hr.

CN1C(=O)C(=C2Nc3ccccc3C2=NO)c2ccccc21 [13d, 1-Methylindirubin-3′-oxime]
IC50 ([1]; Table 1, read-out: IC50 GSK-3 α/β): > 100 µM
IC50 ([1]; Table 4, read-out: IC50 GSK-3): > 100 µM
IC50 ([1]; Table 5, read-out: IC50 GSK-3α/β): > 100 µM
EC50 [2]: 0.129 µM
accumulation of 5L cells in G1 phase [3]: very striking accumulation
EC50 [4]: 0.008 µM
p27^KIP1 expression in 5L cells [5]: very effective p27^KIP1 inducers
survival of BP8 cells (MTT) [6]: apparently not affected
level of tyrosine phosphorylation of both GSK-3 isoforms [7]: None of these changes were observed
survival of 5L cells (MTT) [8]: apparently not affected
IC50 ([9]; Table 1): > 100 µM
IC50 ([9]; Table 5): > 100 µM
proliferation rate of BP8 cells [10]: did not effect the proliferation
IC50 ([11]; Table 1, read-out: IC50 CDK1/cyclin B): 73 µM
IC50 ([11]; Table 4, read-out: IC50 CDK1/cycin B): 73 µM
IC50 ([11]; Table 5, read-out: IC50 CDK1/cyclin B): 73 µM
proliferation rate of 5L cells [12]: reduced the rate of proliferation only in 5L cells
accumulation of BP8 cells in G1 phase [13]: but not of AhR −/− cells (BP8)

Source: US20070276025A1, “Indirubin-Type Compounds, Compositions, and Methods for Their Use” (priority 2003, published 2007)
